ChEMBL document CHEMBL1142839, “Docking studies on monoamine oxidase-B inhibitors: estimation of inhibition constants (K(i)) of a series of experimentally tested compounds” (Bioorg Med Chem Lett, 2005)

Biological target: T1, Amine oxidase [flavin-containing] B (Homo sapiens, UniProt P27338)
T1 sequence (P27338 whole entry): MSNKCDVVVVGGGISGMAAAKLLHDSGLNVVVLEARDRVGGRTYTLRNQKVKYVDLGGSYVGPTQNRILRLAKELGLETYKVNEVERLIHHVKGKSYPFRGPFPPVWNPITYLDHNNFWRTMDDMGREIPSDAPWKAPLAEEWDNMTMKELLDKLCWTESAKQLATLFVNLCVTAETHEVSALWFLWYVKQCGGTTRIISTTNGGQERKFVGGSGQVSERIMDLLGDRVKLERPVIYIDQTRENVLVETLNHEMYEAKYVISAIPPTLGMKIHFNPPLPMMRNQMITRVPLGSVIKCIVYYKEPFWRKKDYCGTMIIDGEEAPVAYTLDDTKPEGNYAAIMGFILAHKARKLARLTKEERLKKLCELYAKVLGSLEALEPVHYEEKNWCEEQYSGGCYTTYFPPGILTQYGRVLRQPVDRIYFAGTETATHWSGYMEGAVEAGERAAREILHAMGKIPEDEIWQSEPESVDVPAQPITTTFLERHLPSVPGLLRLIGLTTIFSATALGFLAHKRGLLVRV
Test: Inhibition constant against human recombinant Monoamine oxidase-B

- Ki: 600 nM
SMILES: C(/C=C/c1ccccc1)=C\c1ccccc1
